This is an account of results in US20220409510A1, “Polypeptides And Methods For Improving Skin Conditions” (Interk Peptide Therapeutics Limited, priority 2018, published 2022).

For the assay, the system named is MMP1. In words: MMP1 expression in human skin explants after UV-irradiation (immunohistochemistry). In kind it is cell-based. The procedure: The effect of the polypeptide IK34720 (SEQ ID NO: 3) on MMP-1 activity in human skin was evaluated using the following protocol.
FIGS. 17 and 18 illustrate the effect of the polypeptide IK34720 (SEQ ID NO: 3) on MMP1 expression, in accordance with the following protocol.
Human skin (2× human explant tissues) removed at elective surgery was cleaned, dissected and cut into pieces of approx. 5mm×5mm. Each piece was placed in a well of a 96 well plate, with individual plates prepared to assess the effects 3 hrs post treatment. Skin was subjected to UV-radiation from solar-simulated UV source for 1.5 h (UVR), or non-irradiation (SHAM), and treated immediately after with a vehicle control, Calcitriol (1 nM) or the polypeptide IK34720 (SEQ ID NO: 3) at concentrations of 50 μM, 250 μM or 500 uM. In FIG. 17, IK50, IK250 and IK500 as μM concentrations refers to 15 μg, 75 μg and 150 μg of IK34720 per 120 μL culture medium/explant, respectively.
Samples harvested at 3 hrs were fixed, sectioned, immunohistochemically stained for MMP1 and quantified for MMP1 expression, by expressing epidermal area stained for MMP1 as a function of total epidermal area examined.

Regarding “RSKAKNPLYRRRRRRRRR [IK34720, 18-residue polypeptide: … with a C-terminal polyarginine region of 8 arginines]”, for the setting “500 μM, 3 hrs, FIG. 18”, the “percentage of MMP1 positive cells” value is reported as “statistically significantly reduced”. Also, the “cells staining for MMP-1” value (3 hrs post irradiation/treatment, Calcitriol 1 nM, IK34720 50, 250 or 500 uM, FIG. 17) is recorded as “fewer stained cells”.
